Experimental data as given in ChEMBL document CHEMBL6114989, “D-morphinan analogs with favorable pharmacokinetic profiles as dual-acting antidepressants” (Eur J Med Chem, 2025).
The source made the active and inactive calls. No cut-off for these calls is given here.

Assays:
[1] = target: Mu-type opioid receptor (Homo sapiens, UniProt P35372); assay: Agonist activity at human mu-opioid receptor stably expressed in CHO cells assessed as inhibition of forskolin-induced cAMP accumulation at 30 uM preincubated with compound for 10 mins followed by forskolin induction and measured after 30 mins by LANCE Ultra cAMP assay relative to control; type: functional, cell-based; details: time 40.0 min
[2] = target: T1, Glutamate NMDA receptor; GRIN1/GRIN2A (Homo sapiens, UniProt Q05586+Q12879); assay: Inhibition of human GluN1/GluN2A NMDA receptor expressed in HEK293 cells assessed as reduction in glutamate induced current at -70 mV holding potential by whole-cell patch clamp technique; type: cell-based
[3] = target: Sodium-dependent serotonin transporter (Homo sapiens, UniProt P31645)
[4] = Selectivity index, ratio of IC50 for inhibition of human GluN1/GluN2A NMDA receptor expressed in HEK293 cells to IC50 for inhibition of SERT (unknown origin); type: cell-based
[5] = target: T2, Sodium-dependent noradrenaline transporter (Homo sapiens, UniProt P23975); assay: Inhibition of human NET
[6] = target: T3, Sodium-dependent dopamine transporter (Homo sapiens, UniProt Q01959); assay: Inhibition of DAT (unknown origin) at 10 uM relative to control
[7] = target: T2, Sodium-dependent noradrenaline transporter; assay: Inhibition of NET (unknown origin) at 10 uM relative to control
[8] = Hepatotoxicity against human HepG2 cells assessed as inhibition of cell proliferation incubated for 48 hrs by celltiter-luminescence assay; type: toxicity, cell-based
[9] = Nephrotoxicity against human HEK293 cells assessed as inhibition of cell proliferation incubated for 48 hrs by celltiter-luminescence assay; type: toxicity, cell-based
[10] = Half life in ICR mouse at 10 mg/kg, ip measured upto 24 hrs by LC-MS/MS analysis; type: ADME, organism-based; details: in vivo
[11] = Metabolic stability in mouse liver microsome assessed as hepatic clearance in presence of NADPH measured upto 60 mins by LC-MS/MS analysis; type: ADME; details: liver microsomes
[12] = Half life in ICR mouse at 10 mg/kg, po measured upto 24 hrs by LC-MS/MS analysis; type: ADME, organism-based; details: in vivo
[13] = Cmax in ICR mouse at 10 mg/kg, ip measured upto 24 hrs by LC-MS/MS analysis; type: ADME, organism-based; details: in vivo
[14] = Metabolic stability in mouse liver microsome assessed as half life in presence of NADPH measured upto 60 mins by LC-MS/MS analysis; type: ADME; details: liver microsomes
[15] = Metabolic stability in mouse liver microsome assessed as intrinsic clearance in presence of NADPH measured upto 60 mins by LC-MS/MS analysis; type: ADME; details: liver microsomes, read-out: CLH
[16] = Tmax in ICR mouse at 10 mg/kg, ip measured upto 24 hrs by LC-MS/MS analysis; type: ADME, organism-based; details: in vivo
[17] = MRT (0 to infinity) in ICR mouse at 10 mg/kg, ip measured upto 24 hrs by LC-MS/MS analysis; type: ADME, organism-based; details: in vivo
[18] = Cmax in ICR mouse at 10 mg/kg, po measured upto 24 hrs by LC-MS/MS analysis; type: ADME, organism-based; details: in vivo
[19] = AUC (0 to t) in ICR mouse at 10 mg/kg, ip measured upto 24 hrs by LC-MS/MS analysis; type: ADME, organism-based; details: in vivo
[20] = AUC (0 to t) in ICR mouse at 10 mg/kg, po measured upto 24 hrs by LC-MS/MS analysis; type: ADME, organism-based; details: in vivo
[21] = AUC (0 to infinity) in ICR mouse at 10 mg/kg, ip measured upto 24 hrs by LC-MS/MS analysis; type: ADME, organism-based; details: in vivo
[22] = Metabolic stability in mouse liver microsome assessed as hepatic extraction ratio in presence of NADPH measured upto 60 mins by LC-MS/MS analysis; type: ADME; details: liver microsomes, read-out: ERH
[23] = MRT (0 to t) in ICR mouse at 10 mg/kg, po measured upto 24 hrs by LC-MS/MS analysis; type: ADME, organism-based; details: in vivo
[24] = Tmax in ICR mouse at 10 mg/kg, po measured upto 24 hrs by LC-MS/MS analysis; type: ADME, organism-based; details: in vivo
[25] = tested on: Mus musculus; assay: Antidepressant activity in ip dosed C57BL/6J mouse assessed as reduction in of immobility time by forced swim test; type: functional, organism-based; details: dose 10-20 mg/kg
[26] = AUC (0 to infinity) in ICR mouse at 10 mg/kg, po measured upto 24 hrs by LC-MS/MS analysis; type: ADME, organism-based; details: in vivo
[27] = target: T1, Glutamate NMDA receptor; GRIN1/GRIN2A; assay: Antagonist activity at human GluN1/GluN2A NMDA receptor expressed in HEK293 cells assessed as reduction in glutamate induced current at -70 mV holding potential by whole-cell patch clamp technique; type: cell-based
[28] = target: T3, Sodium-dependent dopamine transporter; assay: Inhibition of DAT (unknown origin)

T2 sequence (P23975 whole entry): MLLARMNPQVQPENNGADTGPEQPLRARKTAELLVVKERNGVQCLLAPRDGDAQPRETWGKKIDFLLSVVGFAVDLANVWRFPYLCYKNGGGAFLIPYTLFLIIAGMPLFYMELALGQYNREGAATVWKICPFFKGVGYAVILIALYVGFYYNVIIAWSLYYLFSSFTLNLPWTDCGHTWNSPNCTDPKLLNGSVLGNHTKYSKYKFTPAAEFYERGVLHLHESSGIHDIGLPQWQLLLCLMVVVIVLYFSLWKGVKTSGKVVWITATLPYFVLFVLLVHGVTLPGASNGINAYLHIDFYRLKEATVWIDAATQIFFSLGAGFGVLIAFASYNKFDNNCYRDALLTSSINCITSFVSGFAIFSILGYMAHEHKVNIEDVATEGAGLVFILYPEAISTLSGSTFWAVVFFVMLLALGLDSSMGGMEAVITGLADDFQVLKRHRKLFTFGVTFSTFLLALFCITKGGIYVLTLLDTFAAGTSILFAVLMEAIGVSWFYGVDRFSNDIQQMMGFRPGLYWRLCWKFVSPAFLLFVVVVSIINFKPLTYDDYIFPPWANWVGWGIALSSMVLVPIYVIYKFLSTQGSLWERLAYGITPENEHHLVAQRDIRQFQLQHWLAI
Sequence of Mu-type opioid receptor (P35372 whole entry): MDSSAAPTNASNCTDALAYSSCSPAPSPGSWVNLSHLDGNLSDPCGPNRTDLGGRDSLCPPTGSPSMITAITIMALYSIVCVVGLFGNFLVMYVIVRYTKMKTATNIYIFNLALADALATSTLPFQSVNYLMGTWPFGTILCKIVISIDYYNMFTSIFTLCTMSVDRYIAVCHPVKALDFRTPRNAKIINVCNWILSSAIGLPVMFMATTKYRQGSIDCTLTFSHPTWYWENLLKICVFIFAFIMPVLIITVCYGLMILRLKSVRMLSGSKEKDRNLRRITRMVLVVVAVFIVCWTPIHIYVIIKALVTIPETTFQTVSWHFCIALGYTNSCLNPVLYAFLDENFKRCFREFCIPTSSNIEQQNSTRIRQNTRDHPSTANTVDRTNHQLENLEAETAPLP
T1 sequence (Q12879 whole entry, other chains not shown): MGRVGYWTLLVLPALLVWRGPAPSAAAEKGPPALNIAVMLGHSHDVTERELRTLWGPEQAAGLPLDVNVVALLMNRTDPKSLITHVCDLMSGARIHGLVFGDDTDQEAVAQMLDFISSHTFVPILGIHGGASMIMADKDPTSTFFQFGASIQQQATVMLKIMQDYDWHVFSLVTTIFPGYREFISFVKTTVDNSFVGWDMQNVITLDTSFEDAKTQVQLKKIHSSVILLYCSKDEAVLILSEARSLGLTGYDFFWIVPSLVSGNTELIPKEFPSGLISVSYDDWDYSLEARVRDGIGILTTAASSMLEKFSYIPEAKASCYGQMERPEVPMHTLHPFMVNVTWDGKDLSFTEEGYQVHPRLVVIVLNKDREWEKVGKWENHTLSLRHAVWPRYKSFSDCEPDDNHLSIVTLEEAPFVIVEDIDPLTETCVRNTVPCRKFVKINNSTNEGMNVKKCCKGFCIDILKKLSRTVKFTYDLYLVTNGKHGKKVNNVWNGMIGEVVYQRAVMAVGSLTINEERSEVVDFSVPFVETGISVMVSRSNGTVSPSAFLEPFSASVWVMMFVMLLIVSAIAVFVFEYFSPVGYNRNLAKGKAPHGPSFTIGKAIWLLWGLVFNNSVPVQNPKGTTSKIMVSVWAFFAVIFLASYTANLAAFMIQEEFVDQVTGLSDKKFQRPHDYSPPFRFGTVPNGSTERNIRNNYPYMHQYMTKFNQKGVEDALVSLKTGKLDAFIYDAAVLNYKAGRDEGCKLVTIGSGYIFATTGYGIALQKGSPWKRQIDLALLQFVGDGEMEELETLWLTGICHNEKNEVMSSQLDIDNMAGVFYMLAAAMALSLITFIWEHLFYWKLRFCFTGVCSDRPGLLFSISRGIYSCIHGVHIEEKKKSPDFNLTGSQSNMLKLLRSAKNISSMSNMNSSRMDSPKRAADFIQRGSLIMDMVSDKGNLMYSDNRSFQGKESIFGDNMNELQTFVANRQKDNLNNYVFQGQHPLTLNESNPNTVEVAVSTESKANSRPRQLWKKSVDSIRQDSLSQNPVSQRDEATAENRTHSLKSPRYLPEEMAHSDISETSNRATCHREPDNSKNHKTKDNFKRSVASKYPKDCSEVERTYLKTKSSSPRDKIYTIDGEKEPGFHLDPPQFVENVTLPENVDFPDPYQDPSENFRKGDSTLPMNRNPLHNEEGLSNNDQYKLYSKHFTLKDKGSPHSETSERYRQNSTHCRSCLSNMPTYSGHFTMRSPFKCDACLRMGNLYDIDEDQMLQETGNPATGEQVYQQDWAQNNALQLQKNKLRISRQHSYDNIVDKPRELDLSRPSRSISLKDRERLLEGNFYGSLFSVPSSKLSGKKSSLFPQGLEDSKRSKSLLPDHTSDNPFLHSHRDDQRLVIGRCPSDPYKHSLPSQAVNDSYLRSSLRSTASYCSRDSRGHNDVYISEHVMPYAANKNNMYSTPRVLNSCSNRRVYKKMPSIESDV
T3 sequence (Q01959 whole entry): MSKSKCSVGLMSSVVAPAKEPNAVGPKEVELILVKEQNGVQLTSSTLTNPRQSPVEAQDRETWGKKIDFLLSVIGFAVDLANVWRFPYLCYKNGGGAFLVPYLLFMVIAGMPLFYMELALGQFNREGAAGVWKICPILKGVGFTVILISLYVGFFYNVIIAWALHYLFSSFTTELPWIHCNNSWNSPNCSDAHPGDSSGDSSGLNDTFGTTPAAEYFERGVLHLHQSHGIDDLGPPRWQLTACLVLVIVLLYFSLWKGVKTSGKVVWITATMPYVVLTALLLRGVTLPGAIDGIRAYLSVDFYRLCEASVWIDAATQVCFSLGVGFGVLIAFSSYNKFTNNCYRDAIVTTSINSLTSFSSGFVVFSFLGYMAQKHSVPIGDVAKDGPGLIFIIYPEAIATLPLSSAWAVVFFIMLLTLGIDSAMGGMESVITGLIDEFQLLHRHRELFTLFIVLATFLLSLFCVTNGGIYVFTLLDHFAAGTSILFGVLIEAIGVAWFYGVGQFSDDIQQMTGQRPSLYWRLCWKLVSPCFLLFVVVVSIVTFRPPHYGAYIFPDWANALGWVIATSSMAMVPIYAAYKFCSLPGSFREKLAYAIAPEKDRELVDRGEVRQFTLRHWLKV
Sequence of Sodium-dependent serotonin transporter (P31645 whole entry): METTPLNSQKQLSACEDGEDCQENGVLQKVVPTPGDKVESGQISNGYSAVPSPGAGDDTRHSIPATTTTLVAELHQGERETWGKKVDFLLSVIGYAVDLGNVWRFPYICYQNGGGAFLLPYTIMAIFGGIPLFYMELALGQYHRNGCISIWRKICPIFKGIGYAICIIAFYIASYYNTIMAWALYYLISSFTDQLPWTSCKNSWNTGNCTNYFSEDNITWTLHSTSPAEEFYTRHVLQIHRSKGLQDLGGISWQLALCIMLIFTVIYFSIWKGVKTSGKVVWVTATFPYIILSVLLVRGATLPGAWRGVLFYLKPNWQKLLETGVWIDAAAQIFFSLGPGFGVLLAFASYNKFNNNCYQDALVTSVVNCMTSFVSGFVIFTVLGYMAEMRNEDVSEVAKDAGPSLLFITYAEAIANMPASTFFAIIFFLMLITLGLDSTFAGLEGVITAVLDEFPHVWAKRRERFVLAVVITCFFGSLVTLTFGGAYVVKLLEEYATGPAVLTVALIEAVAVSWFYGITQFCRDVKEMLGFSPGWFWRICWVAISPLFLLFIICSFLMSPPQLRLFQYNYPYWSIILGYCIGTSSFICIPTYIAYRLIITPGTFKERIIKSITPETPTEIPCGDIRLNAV

Compound	inhibition [1] [%]	IC50 [2] [µM]	IC50 [3] [µM]	IC50 [5] [µM]	inhibition [6]	inhibition [7]	also measured
Cc1ccc2c(c1)[C@]13CCCC[C@@H]1[C@H](C2)N(C)CC3 [DIMEMORFAN]	21	2.96	148	1.22	inactive	–	Ratio IC50 [4]: 20
CN1CC[C@@]23CCCC[C@@H]2[C@@H]1Cc1ccc(NC=O)cc13	33	3.07	270	–	6%	inactive	–
CCN1CC[C@@]23CCCC[C@@H]2[C@@H]1Cc1ccc(O)cc13	9	0.28	5400	10.6	12%	–	–
COC(=O)c1ccc2c(c1)[C@]13CCCC[C@@H]1[C@H](C2)N(C)CC3	–	4.77	17	–	inactive	12%	inhibition ([1]; filed as agonist): 88%
CCOc1ccc2c(c1)[C@]13CCCC[C@@H]1[C@H](C2)N(C)CC3	26	1.81	15	–	10%	33%	–
CCc1ccc2c(c1)[C@]13CCCC[C@@H]1[C@H](C2)N(CC)CC3	10	9.87	2300	–	5%	24%	–
CN1CC[C@@]23CCCC[C@@H]2[C@@H]1Cc1ccc(O)cc13 [DEXTRORPHAN]	–	0.28	633	2.84	inactive	–	–
Cc1ccc(Sc2ccccc2N2CCNCC2)c(C)c1 [VORTIOXETINE]	–	–	–	–	–	–	IC50 at 48 h [8]: 8.1 µM; IC50 at 48 h [9]: 12.2 µM
CCOc1ccc2c(c1)[C@]13CCCC[C@@H]1[C@H](C2)N(CC)CC3	4	1.3	2000	–	6%	26%	–
CC(=O)c1ccc2c(c1)[C@]13CCCC[C@@H]1[C@H](C2)N(C)CC3	–	> 40	130	–	inactive	inactive	inhibition ([1]; filed as agonist): 87%
COc1ccc2c(c1)[C@]13CCCC[C@@H]1[C@H](C2)NCC3	23	0.3	1170	–	4%	44%	–
CCN1CC[C@@]23CCCC[C@@H]2[C@@H]1Cc1ccccc13	–	4.92	11300	–	inactive	23%	inhibition ([1]; filed as agonist): 40%
CN1CC[C@@]23CCCC[C@@H]2[C@@H]1Cc1ccc(C(C)(C)O)cc13	11	> 40	9000	–	inactive	inactive	–
CCc1ccc2c(c1)[C@]13CCCC[C@@H]1[C@H](C2)NCC3	33	0.5	1890	4.71	inactive	–	–
CN1CC[C@@]23CCCC[C@@H]2[C@@H]1Cc1ccc(NC(=O)c2ccccc2)cc13	14	2.2	7600	–	15%	inactive	–
CC(=O)Nc1ccc2c(c1)[C@]13CCCC[C@@H]1[C@H](C2)N(C)CC3	36	2.17	435	–	19%	inactive	half-life [10]: 44.4 min; CLhep predicted [11]: 25.3 mL/min/kg; half-life [12]: 51.6 min; Cmax [13]: 1680 ng/mL; half-life [14]: 267 min; CLint scaled [15]: 35.1 mL/min/kg; Tmax [16]: 4.8 min; MRT inf [17]: 40.8 min; Cmax [18]: 1040 ng/mL; AUC(0-t) at 24 h [19]: 1080 ng·h/mL; AUC(0-t) at 24 h [20]: 1220 ng·h/mL; AUC(0-inf) [21]: 1080 ng·h/mL; hepatic extraction ratio at 1 h [22]: 0.281; MRT last at 24 h [23]: 62.4 min; Tmax [24]: 11.4 min; Activity [25]: Dose-dependent-effect; AUC(0-inf) [26]: 1220 ng·h/mL
Cc1ccc2c(c1)[C@]13CCCC[C@@H]1[C@H](C2)NCC3	16	0.28	2090	5.72	inactive	–	–
CNc1ccc2c(c1)[C@]13CCCC[C@@H]1[C@H](C2)N(C)CC3	14	6.23	577	–	10%	25%	–
c1ccc2c(c1)C[C@@H]1NCC[C@]23CCCC[C@H]13	–	–	8300	–	20%	14%	inhibition ([1]; filed as agonist): 95%; IC50 [27]: 0.43 µM
CNC(=O)c1ccc2c(c1)[C@]13CCCC[C@@H]1[C@H](C2)N(C)CC3	25	19.9	335	–	15%	12%	–
CN1CC[C@@]23CCCC[C@@H]2[C@@H]1Cc1ccc(C(=O)NC2CC2)cc13	–	9.23	5660	–	6%	inactive	inhibition ([1]; filed as agonist): 60%
c1ccc2cc([C@]34CNC[C@H]3C4)ccc2c1 [CENTANAFADINE]	–	–	90	0.01	–	–	Activity [1]: inactive; IC50 [28]: 0.06 µM
CN1CC[C@@]23CCCC[C@@H]2[C@@H]1Cc1ccccc13	39	2.96	333	17.3	15%	–	–
CCc1ccc2c(c1)[C@]13CCCC[C@@H]1[C@H](C2)N(C)CC3	23	5.18	238	4.9	13%	–	–
CCOc1ccc2c(c1)[C@]13CCCC[C@@H]1[C@H](C2)NCC3	24	0.34	463	–	16%	12%	–
CC(O)c1ccc2c(c1)[C@]13CCCC[C@@H]1[C@H](C2)N(C)CC3 (some centres not stated)	8	–	1090	–	inactive	39%	–
